Reference: patent US4000261A, “5-Epi-4,6-di-O-(aminoglycosyl)-2-deoxystreptamines, methods for their manufacture and intermediates useful therein, methods for their use as antibacterial agents and compositions useful therefor” (priority 1975, dated 1976)
≈ marks a conversion by molar mass, not a printed value. Where two headings read alike, the source gives them in different places.

Assays:
Format in all cases: cell-based
[1] = system: gram positive bacteria (e.g. Staphylococcus aureus) and gram negative bacteria (e.g. Escherichia coli and Pseudomonas aeruginosa); experiment: antibacterial activity determined by standard dilution tests; settings: including bacteria resistant to the parent compounds
[2] = system: Bacillus subtilis 663; experiment: in vitro minimal inhibitory concentration (MIC), standard tube dilution method; settings: strain 663, Mueller-Hinton broth
Description: (§1) In Table 1, set forth below is shown the in vitro minimal inhibitory concentration (MIC) of gentamicin C2a against representative gram-positive and gram-negative bacteria. The results are derived using the standard tube dilution method in Mueller-Hinton broth.
(§2) In Table 2, set forth below is shown the in vitro minimal inhibitory concentration (MIC) of gentamicin C2b against representative gram-positive and gram-negative bacteria. The results are derived using the standard tube dilution method in Mueller-Hinton broth.

[3] = system: Escherichia coli; experiment: as above
Description: as §1, §2

[4] = system: Klebsiella pneumoniae; experiment: as above
Description: as §1, §2

[5] = system: Pseudomonas aeruginosa; experiment: as above
Description: as §1, §2

[6] = system: Salmonella typhi. B.; experiment: as above; settings: Salmonella enterica
Description: as §1, §2

[7] = system: Staphylococcus aureus; experiment: as above; settings: Mueller-Hinton broth
Description: as §1, §2

[8] = system: gram-positive and gram-negative bacteria; experiment: antibacterial spectrum and relative activity in vitro; settings: for antibacterial spectrum in vitro: compared with gentamicin C1, C1a and C2
[9] = ATCC10536, strain ATCC 10536, Mueller-Hinton broth
[10] = strain JR66, gentamicin resistant, Mueller-Hinton broth
[11] = strain LA 290/R55, gentamicin resistant, Mueller-Hinton broth
[12] = strain 17, Mueller-Hinton broth, read-out: MIC
[13] = strain 20, Mueller-Hinton broth
[14] = strain 762, Mueller-Hinton broth
[15] = strain 3223, Mueller-Hinton broth
[16] = strain St 138, gentamicin resistant, Mueller-Hinton broth
[17] = strain Travers, gentamicin resistant, Mueller-Hinton broth

Compound	MIC [2]	MIC [3, 9]	MIC [3, 10]	MIC [3, 11]	MIC [4, 12]	MIC [5, 13]	MIC [5, 14]	MIC [5, 15]	MIC [5, 16]	MIC [5, 17]	MIC [6]	MIC ([7]; strain 59N)	MIC ([7]; strain Ziegler)	antibacterial spectrum in vitro [8]	also measured
CN[C@@H]1[C@@H](O)[C@@H](O[C@@H]2[C@H](O)[C@H](O[C@H]3OC(CN)=CC[C@H]3N)[C@@H](N)C[C@H]2N)OC[C@@H]1O [5-epi-Antibiotic 66-40D]															antibacterial activity in standard dilution tests [1]: active against gram positive bacteria (e.g. Staphylococcus aureus) and gram negative bacteria (e.g. Escherichia coli and Pseudomonas aeruginosa)
CNC[C@@H]1CC[C@@H](N)[C@@H](O[C@H]2[C@H](O)[C@@H](O[C@H]3OC[C@](C)(O)[C@H](NC)[C@H]3O)[C@H](N)C[C@@H]2N)O1 [gentamicin C2b]	< 0.05 µg/mL	0.075 µg/mL (≈ 0.162 µM)	7.5 µg/mL (≈ 16.2 µM)	> 25 µg/mL	0.075 µg/mL (≈ 0.162 µM)	0.3 µg/mL (≈ 0.647 µM)	0.3 µg/mL (≈ 0.647 µM)	0.075 µg/mL (≈ 0.162 µM)	17.5 µg/mL (≈ 37.8 µM)	> 25 µg/mL	0.3 µg/mL (≈ 0.647 µM)	0.075 µg/mL (≈ 0.162 µM)	0.075 µg/mL (≈ 0.162 µM)	substantially the same antibacterial spectrum in vitro as do gentamicin C1, C1a and C2	MIC ([4]; strain 3694, gentamicin resistant, Mueller-Hinton broth, read-out: MIC): 17.5 µg/mL (≈ 37.8 µM); MIC ([7]; Staphylococcus aureus, strain wood, read-out: MIC): 0.075 µg/mL (≈ 0.162 µM)
CCN[C@@H]1C[C@H](N)[C@@H](O[C@H]2OC(CN)=CC[C@H]2N)[C@@H](O)[C@H]1O[C@H]1OC[C@](C)(O)[C@H](NC)[C@H]1O [1-N-ethyl-5-episisomicin]															antibacterial activity / spectrum ([8]; general statement, some compared with parent antibiotics): enhanced antibacterial activity
CN[C@@H]1[C@@H](O)[C@@H](O[C@@H]2[C@@H](O)[C@H](O[C@H]3O[C@H]([C@H](C)N)CC[C@H]3N)[C@@H](N)C[C@H]2N)OC[C@]1(C)O [gentamicin C2a]	0.1 µg/mL (≈ 0.216 µM)	0.3 µg/mL (≈ 0.647 µM)	7.5 µg/mL (≈ 16.2 µM)	17.5 µg/mL (≈ 37.8 µM)	0.8 µg/mL (≈ 1.73 µM)	3 µg/mL (≈ 6.47 µM)	0.8 µg/mL (≈ 1.73 µM)	0.3 µg/mL (≈ 0.647 µM)	> 25 µg/mL	> 25 µg/mL	0.3 µg/mL (≈ 0.647 µM)	0.3 µg/mL (≈ 0.647 µM)	0.3 µg/mL (≈ 0.647 µM)	substantially the same antibacterial spectrum in vitro as do gentamicin C1, C1a and C2	MIC [4]: 17.5 µg/mL (≈ 37.8 µM); MIC ([7]; Staphylococcus aureus, strain 6538P, read-out: MIC): 0.3 µg/mL (≈ 0.647 µM); activity relative to the gentamicin C complex ([8]; as the free base, % of the activity of the gentamicin C complex): about 74%
